Source: the NIST ThermoML archive (doi:10.1021/acs.jced.8b00349)

Experiment: mn = molality of the nth substance listed, in mol/kg
Details: 101 kPa, Liquid; for viscosity: Falling or rolling sphere viscometry; for speed of sound: Frequency=3 MHz, Single path-length method; for mass density: Vibrating tube method

C[n+]1ccn(CCCCCn2cc[n+](C)c2)c1.[Br-].[Br-] + O
Details	mass density [kg/m3]	speed of sound [m/s]	viscosity [mPa·s]
293.15 K, m1 = 0.03341	1002.35	1488.3	1.021
293.15 K, m1 = 0.04614	1003.89	1490.3	1.027
293.15 K, m1 = 0.05646	1005.11	1491.6	1.032
293.15 K, m1 = 0.06717	1006.38	1493.3	1.037
293.15 K, m1 = 0.0777	1007.58	1494.8	1.042
293.15 K, m1 = 0.08857	1008.85	1496.4	1.047
293.15 K, m1 = 0.09671	1009.75	1497.3	1.05
298.15 K, m1 = 0.03341	1001.16	1501.9	0.908
298.15 K, m1 = 0.04614	1002.7	1503.7	0.914
298.15 K, m1 = 0.05646	1003.91	1505	0.918
298.15 K, m1 = 0.06717	1005.17	1506.5	0.924
298.15 K, m1 = 0.0777	1006.38	1507.8	0.928
298.15 K, m1 = 0.08857	1007.62	1509.2	0.933
298.15 K, m1 = 0.09671	1008.51	1510.2	0.936
303.15 K, m1 = 0.03341	999.742	1514.4	0.815
303.15 K, m1 = 0.04614	1001.27	1515.9	0.821
303.15 K, m1 = 0.05646	1002.47	1517.1	0.825
303.15 K, m1 = 0.06717	1003.73	1518.5	0.83
303.15 K, m1 = 0.0777	1004.93	1519.8	0.835
303.15 K, m1 = 0.08857	1006.16	1520.9	0.839
303.15 K, m1 = 0.09671	1007.05	1521.8	0.843
308.15 K, m1 = 0.03341	998.108	1523.7	0.737
308.15 K, m1 = 0.04614	999.627	1525.1	0.741
308.15 K, m1 = 0.05646	1000.83	1526.4	0.747
308.15 K, m1 = 0.06717	1002.07	1527.4	0.752
308.15 K, m1 = 0.0777	1003.27	1528.7	0.757
308.15 K, m1 = 0.08857	1004.5	1529.9	0.762
308.15 K, m1 = 0.09671	1005.38	1530.7	0.766
313.15 K, m1 = 0.03341	996.275	1533.2	0.67
313.15 K, m1 = 0.04614	997.783	1534.3	0.676
313.15 K, m1 = 0.05646	998.981	1535.4	0.681
313.15 K, m1 = 0.06717	1000.22	1536.5	0.685
313.15 K, m1 = 0.0777	1001.41	1537.5	0.689
313.15 K, m1 = 0.08857	1002.64	1538.6	0.694
313.15 K, m1 = 0.09671	1003.53	1539.4	0.697
